Test results taken from ChEMBL document CHEMBL1150522, “Preparation and antifungal activity of fusacandin analogs: C-6 sidechain esters” (1996).
Converted amounts (≈) assume the structure as drawn.

Assays:
Format in all cases: functional
[1] = system: Candida albicans; assay: Minimum inhibitory concentration against Candida albicans (ATCC 38247) in the absence of serum.
[2] = system: Candida albicans; assay: Minimum inhibitory concentration against Candida albicans (ATCC 62376) in the absence of serum.
[3] = system: Candida albicans; assay: Minimum inhibitory concentration against Candida albicans (CCH 442) in the absence of serum.
[4] = system: Candida albicans; assay: Minimum inhibitory concentration against Candida albicans (579a) in the presence of serum
[5] = system: Candida albicans; assay: Minimum inhibitory concentration against Candida albicans (579a) in the absence of serum.
[6] = system: Candida albicans; assay: Minimum inhibitory concentration against Candida albicans (ATCC 62376) in the presence of serum
[7] = system: Candida albicans; assay: Minimum inhibitory concentration against Candida albicans (ATCC 10231) in the presence of serum
[8] = system: Candida albicans; assay: Minimum inhibitory concentration against Candida albicans (ATCC 38247) in the presence of serum
[9] = system: Candida albicans; assay: Minimum inhibitory concentration against Candida albicans (ATCC 10231) in the absence of serum.
[10] = system: Candida albicans; assay: Minimum inhibitory concentration against Candida albicans (CCH 442) in the presence of serum

| Compound | MIC [1] [µg/mL] | MIC [2] [µg/mL] | MIC [3] [µg/mL] | MIC [4] [µg/mL] | MIC [5] [µg/mL] | MIC [6] [µg/mL] | MIC [7] [µg/mL] | MIC [8] [µg/mL] | MIC [9] [µg/mL] | MIC [10] [µg/mL] |
| --- | --- | --- | --- | --- | --- | --- | --- | --- | --- | --- |
| CCCCC/C=C/C=C/[C@@H](O)C/C=C/C=C/C(=O)O[C@@H]1[C@@H](O)[C@H](c2c(O)cc(O)cc2CO)O[C@H](CO)[C@H]1O[C@@H]1O[C@H](COC(=O)c2ccccc2)[C@H](O)[C@H](O)[C@H]1O[C@@H]1O[C@H](CO)[C@H](O)[C@H](O)[C@H]1O | > 100 | > 100 | > 100 | 6.25 | > 100 | 12.5 | 12.5 | 6.25 | > 100 | 12.5 |
| CCCCC/C=C/C=C/[C@@H](O)C/C=C/C=C/C(=O)O[C@@H]1[C@@H](O)[C@H](c2c(O)cc(O)cc2CO)O[C@H](CO)[C@H]1O[C@@H]1O[C@H](COC(=O)c2cccc(-c3ccc(OC)cc3)c2)[C@H](O)[C@H](O)[C@H]1O[C@@H]1O[C@H](CO)[C@H](O)[C@H](O)[C@H]1O | 100 (≈ 92.3 µM) | 25 (≈ 23.1 µM) | 100 (≈ 92.3 µM) | 0.78 | 50 (≈ 46.2 µM) | 3.12 | 1.56 | 1.56 | 50 (≈ 46.2 µM) | 1.56 |
| CCCCC/C=C/C=C/[C@@H](O)C/C=C/C=C/C(=O)O[C@@H]1[C@@H](O)[C@H](c2c(O)cc(O)cc2CO)O[C@H](CO)[C@H]1O[C@@H]1O[C@H](COC(=O)c2ccc(Oc3ccccc3)cc2)[C@H](O)[C@H](O)[C@H]1O[C@@H]1O[C@H](CO)[C@H](O)[C@H](O)[C@H]1O | 50 (≈ 46.8 µM) | > 100 | 100 (≈ 93.5 µM) | 1.56 | 50 (≈ 46.8 µM) | 3.12 | 3.12 | 3.12 | 50 (≈ 46.8 µM) | 3.12 |
| CCCCC/C=C/C=C/[C@@H](O)C/C=C/C=C/C(=O)O[C@@H]1[C@@H](O)[C@H](c2c(O)cc(O)cc2CO)O[C@H](CO)[C@H]1O[C@@H]1O[C@H](COC(=O)c2ccc(CCCC)cc2)[C@H](O)[C@H](O)[C@H]1O[C@@H]1O[C@H](CO)[C@H](O)[C@H](O)[C@H]1O | > 100 | > 100 | > 100 | 0.78 | > 100 | 1.56 | 3.12 | 1.56 | > 100 | 3.12 |
| CCCCC/C=C/C=C/[C@@H](O)C/C=C/C=C/C(=O)O[C@@H]1[C@@H](O)[C@H](c2c(O)cc(O)cc2CO)O[C@H](CO)[C@H]1O[C@@H]1O[C@H](COC(=O)c2ccc(-c3ccc(OC(C)C)cc3)cc2)[C@H](O)[C@H](O)[C@H]1O[C@@H]1O[C@H](CO)[C@H](O)[C@H](O)[C@H]1O | 25 (≈ 22.5 µM) | 12.5 (≈ 11.2 µM) | 6.25 (≈ 5.62 µM) | 0.78 | 12.5 (≈ 11.2 µM) | 0.78 | 1.56 | 0.78 | 12.5 (≈ 11.2 µM) | 0.78 |

The remaining molecules from weak to strong by MIC [1], led by results:

| MIC [1] [µg/mL] | MIC [2] [µg/mL] | MIC [3] [µg/mL] | MIC [4] [µg/mL] | MIC [5] [µg/mL] | MIC [6] [µg/mL] | MIC [7] [µg/mL] | MIC [8] [µg/mL] | MIC [9] [µg/mL] | MIC [10] [µg/mL] | Compound |
| --- | --- | --- | --- | --- | --- | --- | --- | --- | --- | --- |
| 25 (≈ 23.1 µM) | 12.5 (≈ 11.5 µM) | 6.25 (≈ 5.77 µM) | 1.56 | 12.5 (≈ 11.5 µM) | 0.78 | 0.78 | 3.12 | 12.5 (≈ 11.5 µM) | 0.78 | CCCCC/C=C/C=C/[C@@H](O)C/C=C/C=C/C(=O)O[C@@H]1[C@@H](O)[C@H](c2c(O)cc(O)cc2CO)O[C@H](CO)[C@H]1O[C@@H]1O[C@H](COC(=O)c2ccc(-c3ccc(OC)cc3)cc2)[C@H](O)[C@H](O)[C@H]1O[C@@H]1O[C@H](CO)[C@H](O)[C@H](O)[C@H]1O |
| 25 (≈ 22.5 µM) | 12.5 (≈ 11.2 µM) | 6.25 (≈ 5.62 µM) | 0.78 | 25 (≈ 22.5 µM) | 0.78 | 0.78 | 0.78 | 12.5 (≈ 11.2 µM) | 0.78 | CCCCC/C=C/C=C/[C@@H](O)C/C=C/C=C/C(=O)O[C@@H]1[C@@H](O)[C@H](c2c(O)cc(O)cc2CO)O[C@H](CO)[C@H]1O[C@@H]1O[C@H](COC(=O)c2ccc(-c3ccc(OCCC)cc3)cc2)[C@H](O)[C@H](O)[C@H]1O[C@@H]1O[C@H](CO)[C@H](O)[C@H](O)[C@H]1O |
| 25 (≈ 23.7 µM) | 12.5 (≈ 11.9 µM) | 12.5 (≈ 11.9 µM) | 0.78 | 12.5 (≈ 11.9 µM) | 0.78 | 0.78 | 1.56 | 12.5 (≈ 11.9 µM) | 0.78 | CCCCC/C=C/C=C/[C@@H](O)C/C=C/C=C/C(=O)O[C@@H]1[C@@H](O)[C@H](c2c(O)cc(O)cc2CO)O[C@H](CO)[C@H]1O[C@@H]1O[C@H](COC(=O)c2ccc(-c3ccccc3)cc2)[C@H](O)[C@H](O)[C@H]1O[C@@H]1O[C@H](CO)[C@H](O)[C@H](O)[C@H]1O |
| 25 (≈ 22.1 µM) | 12.5 (≈ 11.1 µM) | 12.5 (≈ 11.1 µM) | 0.78 | 12.5 (≈ 11.1 µM) | 0.78 | 1.56 | 3.12 | 12.5 (≈ 11.1 µM) | 0.78 | CCCCC/C=C/C=C/[C@@H](O)C/C=C/C=C/C(=O)O[C@@H]1[C@@H](O)[C@H](c2c(O)cc(O)cc2CO)O[C@H](CO)[C@H]1O[C@@H]1O[C@H](COC(=O)c2ccc(-c3ccc(-c4ccccc4)cc3)cc2)[C@H](O)[C@H](O)[C@H]1O[C@@H]1O[C@H](CO)[C@H](O)[C@H](O)[C@H]1O |
